# Source: US20210330611A1, “THERAPY FOR NEUROLOGICAL DISEASES/DISORDERS” (priority 2020, published 2021)
# Structures can show the parent of a compound that is named as a salt. Where two headings read alike, the source gives them in different places.
# Columns and labels:
# [1] = system: LPS-induced microglia activation; experiment: Image-based assay of LPS-induced microglia activation (HTS and dose response); format: cell-based, rat; conditions: for inhibition at 10 µM: Rattus norvegicus, Microglia, read-out: LPS % inhibition
# [2] = system: fibrin-induced microglia activation; experiment: Image-based assay of fibrin-induced microglia activation (HTS and dose response); format: cell-based, rat; conditions: for inhibition at 10 µM: Rattus norvegicus, Microglia, read-out: Fibrin % inhibition
# [3] = system: primary rat microglia; experiment: Cell toxicity (dead cells, size <150 μm2) in LPS assay
# [4] = system: primary rat microglia; experiment: Cell toxicity (dead cells, size <150 μm2) in coated fibrin (cFib) assay;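 further: share of dead cells sized under 150 µm2 at 10 µM in fibrin-stimulated microglia HTS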
# [5] = system: fibrin- and LPS-induced microglia activation; experiment: cells; format: cell-based, rat
# [6] = primary microglia HTS, 10 μM, LPS-stimulated, cell size >800 μm^2 as marker of activation
# [7] = primary microglia HTS, 10 μM, fibrin-stimulated, cell size >800 μm^2 as marker of activation
# [8] = primary microglia HTS, 10 μM, LPS assay, cell size <150 μm^2 as marker of toxicity
# [9] = primary microglia HTS, 10 μM, fibrin assay, cell size <150 μm^2 as marker of toxicity
# [10] = HTS of 1907 compounds, quadrant by fibrin and LPS inhibition
# [11] = 48 h, primary microglia HTS, LPS stimulation, increased cell size (>800 μm^2) as marker of activation
# [12] = primary microglia HTS, fibrin stimulation, increased cell size (>800 μm^2) as marker of activation
# [13] = primary microglia HTS, LPS stimulation, decreased size (<150 μm^2) as marker of toxicity
# [14] = primary microglia HTS, fibrin stimulation, decreased size (<150 μm^2) as marker of toxicity
# [15] = quadrant by fibrin and LPS inhibition in HTS of 1907 compounds
# [16] = 48 h, primary microglia HTS, LPS stimulation, activation = cell size >800 μm2
# [17] = primary microglia HTS, fibrin stimulation, activation = cell size >800 μm2
# [18] = primary microglia HTS, LPS stimulation, toxicity = cell size <150 μm2
# [19] = primary microglia HTS, fibrin stimulation, toxicity = cell size <150 μm2
# [20] = primary HTS, 10 μM, LPS-stimulated primary microglia
# [21] = primary HTS, 10 μM, fibrin-stimulated primary microglia
# [22] = primary HTS, 10 μM, LPS assay, dead cells size <150 μm2
# [23] = primary HTS, 10 μM, fibrin assay, dead cells size <150 μm2
# [24] = primary microglia HTS, LPS stimulation, increased cell size (>800 μm^2) as marker of activation
compound,measurement,setting,value
O=C(O)C1CSCN1 (stereo not drawn) [Timonacic],inhibition at 10 µM,[1]; [6],19%
same,inhibition at 10 µM,[2]; [7],-38%
same,LPS % cell toxicity,[3]; [8],0%
same,Fibrin % cell toxicity,[4]; [9],0%
same,Quadrant (FIG. 5b),[5]; [10],Q4
O=C(O)c1cc(/N=N/c2ccc(O)c(C(=O)O)c2)ccc1O [Olsalazine],inhibition at 10 µM,[1]; [11],22%
same,inhibition at 10 µM,[2]; [12],-36%
same,LPS % cell toxicity,[3]; [13],1%
same,Fibrin % cell toxicity,[4]; [14],1%
same,Quadrant (FIG. 5b),[5]; [15],Q4
COc1ccc2[nH]c([S+]([O-])Cc3ncc(C)c(OC)c3C)nc2n1 (stereo not drawn) [Tenatoprazole],inhibition at 10 µM,[1]; [6],9%
same,inhibition at 10 µM,[2]; [7],-17%
same,LPS % cell toxicity,[3]; [8],0%
same,Fibrin % cell toxicity,[4]; [9],1%
same,Quadrant (FIG. 5b),[5]; [10],Q4
c1ccc2c(CC3=NCCN3)cccc2c1 [Naphazoline],inhibition at 10 µM,[1]; [11],13%
same,inhibition at 10 µM,[2]; [12],-1%
same,LPS % cell toxicity,[3]; [13],1%
same,Fibrin % cell toxicity,[4]; [14],1%
same,Quadrant (FIG. 5b),[5]; [15],Q4
CC[N+](CC)(CC)CCOc1cccc(OCC[N+](CC)(CC)CC)c1OCC[N+](CC)(CC)CC [Gallamine Triethiodide],inhibition at 10 µM,[1]; [16],24%
same,inhibition at 10 µM,[2]; [17],-11%
same,LPS % cell toxicity,[3]; [18],1%
same,Fibrin % cell toxicity,[4]; [19],1%
same,Quadrant (FIG. 5b),[5]; [15],Q4
O=c1[nH]c(=O)c2ccccc2o1 [Carsalam],inhibition at 10 µM,[1]; [20],11%
same,inhibition at 10 µM,[2]; [21],-7%
same,LPS % cell toxicity,[3]; [22],1%
same,Fibrin % cell toxicity,[4]; [23],0%
same,Quadrant (FIG. 5b),"[5]; primary HTS, 10 μM",Q4
C[C@]12Cc3c[nH]nc3C[C@@H]1CC[C@@H]1[C@@H]2CC[C@@]2(C)[C@H]1CC[C@]2(C)O [Stanozolol],inhibition at 10 µM,[1]; [6],33%
same,inhibition at 10 µM,[2]; [7],-5%
same,LPS % cell toxicity,[3]; [8],1%
same,Fibrin % cell toxicity,[4]; [9],1%
same,Quadrant (FIG. 5b),[5]; [10],Q4
Cn1cnc2c1c(=O)[nH]c(=O)n2C [Theobromine],inhibition at 10 µM,[1]; [6],18%
same,inhibition at 10 µM,[2]; [7],11%
same,LPS % cell toxicity,[3]; [8],1%
same,Fibrin % cell toxicity,[4]; [9],0%
same,Quadrant (FIG. 5b),[5]; [10],Q4
Cc1ccc2c(Cl)cc(Cl)c(O)c2n1 [Chlorquinaldol],inhibition at 10 µM,[1]; [20],15%
same,inhibition at 10 µM,[2]; [21],-14%
same,LPS % cell toxicity,[3]; [22],0%
same,Fibrin % cell toxicity,[4]; [23],1%
same,Quadrant (FIG. 5b),"[5]; primary HTS, 10 μM",Q4
CC(C)(C)NC[C@H](O)COc1nsnc1N1CCOCC1 [Timolol],LPS % inhibition,[1]; [6],−7%
same,Fibrin % inhibition,[2]; [7],11%
same,LPS % cell toxicity,[3]; [8],0%
same,Fibrin % cell toxicity,[4]; [9],1%
same,Quadrant (FIG. 5b),[5]; [10],Q4
Cc1noc(NS(=O)(=O)c2ccc(N)cc2)c1C [Sulfisoxazole],inhibition at 10 µM,[1]; [6],6%
same,inhibition at 10 µM,[2]; [7],-11%
same,LPS % cell toxicity,[3]; [8],0%
same,Fibrin % cell toxicity,[4]; [9],0%
same,Quadrant (FIG. 5b),[5]; [10],Q4
O=[N+]([O-])O[C@@H]1CO[C@H]2[C@@H]1OC[C@@H]2O [Isosorbide Mononitrate],inhibition at 10 µM,[1]; [16],15%
same,inhibition at 10 µM,[2]; [17],-17%
same,LPS % cell toxicity,[3]; [18],1%
same,Fibrin % cell toxicity,[4]; [19],0%
same,Quadrant (FIG. 5b),[5]; [15],Q4
Chiniofon,LPS % inhibition,[1]; [20],−1%
same,Fibrin % inhibition,[2]; [21],−52%
same,LPS % cell toxicity,[3]; [22],1%
same,Fibrin % cell toxicity,[4]; [23],1%
same,Quadrant (FIG. 5b),"[5]; primary HTS, 10 μM",Q4
O=C(c1ccccc1)c1ccc2n1CCC2C(=O)O (stereo not drawn) [Ketorolac],inhibition at 10 µM,[1]; [16],26%
same,inhibition at 10 µM,[2]; [17],15%
same,LPS % cell toxicity,[3]; [18],0%
same,Fibrin % cell toxicity,[4]; [19],0%
same,Quadrant (FIG. 5b),[5]; [15],Q4
CC1(C)S[C@@H]2[C@H](NC(=O)C(C(=O)O)c3ccccc3)C(=O)N2[C@H]1C(=O)O (stereo partly drawn) [Carbenicillin],inhibition at 10 µM,[1]; [20],4%
same,inhibition at 10 µM,[2]; [21],-4%
same,LPS % cell toxicity,[3]; [22],0%
same,Fibrin % cell toxicity,[4]; [23],1%
same,Quadrant (FIG. 5b),"[5]; primary HTS, 10 μM",Q4
CN1CCc2c(c3ccccc3n2Cc2ccccc2)C1.CN1CCc2c(c3ccccc3n2Cc2ccccc2)C1.O=S(=O)(O)c1cccc2c(S(=O)(=O)O)cccc12 [Mebhydrolin Naphthalenesulfonate],LPS % inhibition,[1]; [24],17%
same,Fibrin % inhibition,[2]; [12],4%
same,LPS % cell toxicity,[3]; [13],0%
same,Fibrin % cell toxicity,[4]; [14],1%
same,Quadrant (FIG. 5b),[5]; [15],Q4
Cc1cnc(NC(=O)C2=C(O)c3ccccc3S(=O)(=O)N2C)s1 [Meloxicam],inhibition at 10 µM,[1]; [11],20%
same,inhibition at 10 µM,[2]; [12],-1%
same,LPS % cell toxicity,[3]; [13],0%
same,Fibrin % cell toxicity,[4]; [14],1%
same,Quadrant (FIG. 5b),[5]; [15],Q4
C=C[C@@]1(C)CC(=O)[C@]2(O)[C@@]3(C)[C@@H](O)CCC(C)(C)[C@@H]3[C@H](O)[C@H](OC(C)=O)[C@@]2(C)O1 [Colforsin],inhibition at 10 µM,[1]; [20],26%
same,inhibition at 10 µM,[2]; [21],46%
same,LPS % cell toxicity,[3]; [22],0%
same,Fibrin % cell toxicity,[4]; [23],1%
same,Quadrant (FIG. 5b),"[5]; primary HTS, 10 μM",Q4
CN(C(=O)CN(CCO)CC(=O)N(C)C(C)(C)Cc1ccccc1)C(C)(C)Cc1ccccc1 [Oxethazaine],inhibition at 10 µM,[1]; [11],42%
same,inhibition at 10 µM,[2]; [12],25%
same,LPS % cell toxicity,[3]; [13],0%
same,Fibrin % cell toxicity,[4]; [14],1%
same,Quadrant (FIG. 5b),[5]; [15],Q4
CC(S)C(=O)NCC(=O)O (stereo not drawn) [Tiopronin],inhibition at 10 µM,[1]; [6],6%
same,inhibition at 10 µM,[2]; [7],-8%
same,LPS % cell toxicity,[3]; [8],0%
same,Fibrin % cell toxicity,[4]; [9],1%
same,Quadrant (FIG. 5b),[5]; [10],Q4
COC(=O)C1=C(C)NC(C)=C(C(=O)OCCN2CCN(C(c3ccccc3)c3ccccc3)CC2)C1c1cccc([N+](=O)[O-])c1 (stereo not drawn) [Manidipine Hydrochloride],inhibition at 10 µM,[1]; [11],12%
same,inhibition at 10 µM,[2]; [12],-43%
same,LPS % cell toxicity,[3]; [13],1%
same,Fibrin % cell toxicity,[4]; [14],1%
same,Quadrant (FIG. 5b),[5]; [15],Q4
CC1(C)S[C@@H]2[C@H](NC(=O)[C@H](C(=O)O)c3ccsc3)C(=O)N2[C@H]1C(=O)O [Ticarcillin Disodium],inhibition at 10 µM,[1]; [6],7%
same,inhibition at 10 µM,[2]; [7],-22%
same,LPS % cell toxicity,[3]; [8],0%
same,Fibrin % cell toxicity,[4]; [9],0%
same,Quadrant (FIG. 5b),[5]; [10],Q4
Viomycin Sulfate,LPS % inhibition,[1]; [6],19%
same,Fibrin % inhibition,[2]; [7],−7%
same,LPS % cell toxicity,[3]; [8],0%
same,Fibrin % cell toxicity,[4]; [9],0%
same,Quadrant (FIG. 5b),[5]; [10],Q4
O[C@H]1[C@H](O)[C@@H](O)[C@H](O)[C@@H](O)[C@H]1O [Inositol],inhibition at 10 µM,[1]; [16],11%
same,inhibition at 10 µM,[2]; [17],-21%
same,LPS % cell toxicity,[3]; [18],0%
same,Fibrin % cell toxicity,[4]; [19],0%
same,Quadrant (FIG. 5b),[5]; [15],Q4
CO[C@@]1(NC(=O)CSCC#N)C(=O)N2C(C(=O)O)=C(CSc3nnnn3C)CS[C@@H]21 [Cefmetazole],inhibition at 10 µM,[1]; [20],8%
same,inhibition at 10 µM,[2]; [21],-50%
same,LPS % cell toxicity,[3]; [22],0%
same,Fibrin % cell toxicity,[4]; [23],0%
same,Quadrant (FIG. 5b),"[5]; primary HTS, 10 μM",Q4
CCS(=O)(=O)CCn1c([N+](=O)[O-])cnc1C [Tinidazole],inhibition at 10 µM,[1]; [6],14%
same,inhibition at 10 µM,[2]; [7],2%
same,LPS % cell toxicity,[3]; [8],1%
same,Fibrin % cell toxicity,[4]; [9],0%
same,Quadrant (FIG. 5b),[5]; [10],Q4
O=C(O)c1ccc(S(=O)(=O)N(Cl)Cl)cc1 [Halazone],inhibition at 10 µM,[1]; [16],19%
same,inhibition at 10 µM,[2]; [17],-13%
same,LPS % cell toxicity,[3]; [18],0%
same,Fibrin % cell toxicity,[4]; [19],0%
same,Quadrant (FIG. 5b),[5]; [15],Q4
Nc1ccc(S(=O)(=O)Nc2ccnn2-c2ccccc2)cc1 [Sulfaphenazole],inhibition at 10 µM,[1]; [6],14%
same,inhibition at 10 µM,[2]; [7],-4%
same,LPS % cell toxicity,[3]; [8],0%
same,Fibrin % cell toxicity,[4]; [9],1%
same,Quadrant (FIG. 5b),[5]; [10],Q4
O=C(O)c1cccnc1Nc1cccc(C(F)(F)F)c1 [Niflumic Acid],inhibition at 10 µM,[1]; [11],9%
same,inhibition at 10 µM,[2]; [12],-14%
same,LPS % cell toxicity,[3]; [13],0%
same,Fibrin % cell toxicity,[4]; [14],1%
same,Quadrant (FIG. 5b),[5]; [15],Q4
CN(C)CCN(Cc1ccccc1)c1ccccn1 [Tripelennamine],inhibition at 10 µM,[1]; [6],25%
same,inhibition at 10 µM,[2]; [7],14%
same,LPS % cell toxicity,[3]; [8],0%
same,Fibrin % cell toxicity,[4]; [9],1%
same,Quadrant (FIG. 5b),[5]; [10],Q4
CCCCCN(CCCCC)C(=O)C(CCC(=O)O)NC(=O)c1ccc(Cl)c(Cl)c1 (stereo not drawn) [Lorglumide Sodium],inhibition at 10 µM,[1]; [16],13%
same,inhibition at 10 µM,[2]; [17],-29%
same,LPS % cell toxicity,[3]; [18],1%
same,Fibrin % cell toxicity,[4]; [19],1%
same,Quadrant (FIG. 5b),[5]; [15],Q4
COC(=O)C[C@](O)(CCCC(C)(C)O)C(=O)O[C@@H]1C(OC)=C[C@]23CCCN2CCc2cc4c(cc2[C@H]13)OCO4 [Homoharringtonie],LPS % inhibition,[1]; [24],106%
same,Fibrin % inhibition,[2]; [12],106%
same,LPS % cell toxicity,[3]; [13],67%
same,Fibrin % cell toxicity,[4]; [14],90%
same,Quadrant (FIG. 5b),[5]; [15],Q2
N=C(N)N [Guanidine],inhibition at 10 µM,[1]; [16],-1%
same,inhibition at 10 µM,[2]; [17],-32%
same,LPS % cell toxicity,[3]; [18],0%
same,Fibrin % cell toxicity,[4]; [19],0%
same,Quadrant (FIG. 5b),[5]; [15],Q4
